# The source made the active and inactive calls. The rule behind the calls is not given here.
# How the values were obtained:
# [1] = biological target: Endothelial PAS domain-containing protein 1 (Homo sapiens) (UniProt Q99814); test: potency against HIF reporters across cell lines – luminescence, panel, selectivity assay for HIF-2a inhibitor project, dose response (AID 651581); settings: human cell HIF reporter
# [2] = biological target: Hypoxia-inducible factor 1-alpha (Homo sapiens) (UniProt Q16665); test: as above; settings: human cell HIF reporter, HIF-1a
# Sequence of Hypoxia-inducible factor 1-alpha (Homo sapiens) (Q16665 whole entry, looked up): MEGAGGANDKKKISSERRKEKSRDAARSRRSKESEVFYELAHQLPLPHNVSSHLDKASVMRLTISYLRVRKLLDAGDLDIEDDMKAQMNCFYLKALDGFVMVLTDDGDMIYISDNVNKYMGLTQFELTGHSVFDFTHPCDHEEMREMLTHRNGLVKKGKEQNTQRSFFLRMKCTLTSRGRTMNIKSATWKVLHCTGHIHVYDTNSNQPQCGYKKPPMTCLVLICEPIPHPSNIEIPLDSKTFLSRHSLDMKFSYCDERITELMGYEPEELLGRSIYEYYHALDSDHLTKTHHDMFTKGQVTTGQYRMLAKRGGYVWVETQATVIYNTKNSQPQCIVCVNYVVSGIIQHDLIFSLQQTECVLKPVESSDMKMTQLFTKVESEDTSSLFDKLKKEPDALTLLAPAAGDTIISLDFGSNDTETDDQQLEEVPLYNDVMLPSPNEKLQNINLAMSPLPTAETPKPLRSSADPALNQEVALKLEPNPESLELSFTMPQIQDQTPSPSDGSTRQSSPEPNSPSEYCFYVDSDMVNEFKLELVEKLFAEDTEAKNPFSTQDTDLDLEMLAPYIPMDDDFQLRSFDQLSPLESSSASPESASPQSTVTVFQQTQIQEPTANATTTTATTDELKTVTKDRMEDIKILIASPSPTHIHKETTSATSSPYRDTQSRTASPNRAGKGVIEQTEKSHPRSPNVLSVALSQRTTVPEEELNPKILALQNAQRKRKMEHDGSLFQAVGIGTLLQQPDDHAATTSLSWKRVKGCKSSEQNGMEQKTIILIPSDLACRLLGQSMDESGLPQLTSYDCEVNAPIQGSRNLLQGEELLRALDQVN
SMILES,"IC50 ([1]; HIF-2a PANC, mean of runs)","IC50 ([1]; HIF-2a PANC, run 1)","IC50 ([1]; HIF-2a PANC, run 2)","IC50 ([1]; HIF-2a, mean of runs)","IC50 ([1]; HIF-2a, run 1)","IC50 ([1]; HIF-2a, run 2)",IC50 ([2]; run 1),IC50 ([2]; run 2),IC50 ([2]; mean of runs)
COc1ccccc1N1C(=O)C=C(Sc2nc(C)cc(C)n2)C1=O,> 99 µM (inactive),> 99 µM,> 99 µM,inactive,10.2 µM,11.8 µM,68.3 µM,> 99 µM,–
COC(=O)c1ccc(C(=O)OC)c(-n2c(=O)c3ccccc3c3ccccc3c2=O)c1,> 99 µM (inactive),> 99 µM,> 99 µM,inactive,25.7 µM,25.2 µM,38.2 µM,42.4 µM,inactive
Cc1ccc(S(=O)(=O)Nc2cccc3cccnc23)c([N+](=O)[O-])c1,> 99 µM (inactive),> 99 µM,> 99 µM,3.76 µM,3.87 µM,3.66 µM,> 99 µM,> 99 µM,–
CC(C)C[C@@H](N)c1nnc(SCC(=O)c2ccc(Cl)cc2)o1,3.91 µM,4.22 µM,3.6 µM,4.02 µM,4.09 µM,3.94 µM,> 99 µM,> 99 µM,–
CC(=O)Nc1ccc(NC(=O)c2ccc(-c3ccnn3C)c3ccoc23)cc1,1.85 µM,2.03 µM,1.67 µM,0.858 µM,0.938 µM,0.777 µM,3.89 µM,> 99 µM,–
Cc1c(CCC(=O)O)c(=O)oc2cc3oc4c(c3cc12)CCCC4,0.708 µM,0.793 µM,0.623 µM,0.276 µM,0.267 µM,0.286 µM,1.15 µM,1.08 µM,1.12 µM
Cc1ccc(S(=O)(=O)Nc2cccc3cccnc23)cc1,> 99 µM (inactive),> 99 µM,> 99 µM,1.12 µM,1.15 µM,1.09 µM,> 99 µM,> 99 µM,–
CN(C)c1ccc(Nc2nc(N)c3ccccc3n2)cc1,17.9 µM,24.8 µM,11 µM,< 30 µM (inactive),< 30 µM,< 30 µM,13.7 µM,< 30 µM,–
COc1cc(/C=C/[N+](=O)[O-])ccc1O,> 99 µM (inactive),> 99 µM,> 99 µM,inactive,11.7 µM,10.3 µM,25.2 µM,28.3 µM,inactive

# — PubChem BioAssay AID651581 (Sanford-Burnham Center for Chemical Genomics, 2012)
